The subject of this test is TNF-α. Nature of the test: Cytokine inhibitory activity in cells: LPS-induced TNF-α in RAW 264.7. The format is cell-based, murine. The following applies: for inhibition at 1 µM / inhibition at 10 µM / inhibition at 100 µM / inhibition at 1000 µM: Mus musculus, RAW264.7, read-out: TNF-α Inhibition Rate (%); for inhibition at 1 µM / inhibition at 10 µM / inhibition at 100 µM / inhibition at 1000 µM / TNF-α Inhibition Rate (%): RAW 264.7, LPS 1 μg/mL; for inhibitory activity in RAW 264.7 cell line on the production of TNF-α, in words: compared to the control compounds. On the procedure:
General reagents used were purchased from Sigma-Aldrich chem. Co. and cytokine inhibitory activities were tested as follows. Mediums and reagents used in cell culture were purchased from GIBCO BRL (USA), and mouse TNF-α ELISA kit was purchased from R&D system (USA). The apparatus used ELISA reader (Spectra max-Plus 384, Molecular Device, USA).
Murine macrophage cell line RAW 264.7 was kindly provided by Korean Tissue Culture Center (KTCC). The cell line was cultured in DMEM medium containing 10% FBS, in a cell culturing device at the condition of 37° C., 5% CO2. First, murine RAW 264.7 was cultured in DMEM medium containing 10% FBS for about 24 hours, and cells were planted 200 μL each in 96 well plates at the concentration of 5×10^5/mL and cultured for about 24 hours. Then, test compounds were treated at various concentrations and then reacted at 37° C. for about 1 hour, wherein 1 μg/mL of lipopolysaccharide (LPS) was added thereto and reacted at 37° C. for about 12 hours. The supernatant was recovered and the amount of murine TNF-α on the medium was quantitated using ELISA kit. Thalidomide was respectively used as a positive and a negative control to compare the activities and the results are shown in the following tables 4a -4c.

The text below walks through data of US7601736B2, “Pyridine derivatives, a process for their preparation and a pharmaceutical composition containing the same” (SK Chemicals Co., Ltd., priority 2003, dated 2009).

As usually defined, the inhibition is the share of the control response that was lost under treatment. With `Cc1cc2c(c(-c3ccccc3)n1)C(=O)OCC2` [Ex. 46, 6-methyl-8-phenyl-3,4-dihydro-pyrano[3,4-c]pyridine-1-on], where the note is “test conc. 1 μM”, the inhibition at 1 µM is 3%. In addition, the inhibition at 10 µM (test conc. 10 μM) amounted to 9%. In addition, the inhibition at 100 µM (test conc. 100 μM) came out at 19%. The inhibition at 1000 µM (test conc. 1 mM) was determined as 29%.
On the same counts, the results for `O=C1OC(c2ccccc2)Cc2ccncc21` (centres unmarked) [Ex. 120a, 3-phenyl-3,4-dihydro-pyrano[3,4-c]pyridine-1-on] are 43%, 54%, 66% and 85%.
For `O=C1OCCc2cc(-c3ccccc3)nc(Cl)c21` [Ex. 73, 8-chloro-6-phenyl-3,4-dihydro-pyrano[3,4-c]pyridine-1-on], in that order: 56%, 63%, 72% and 80%.
In the case of `Cc1cc2c(c(N3CCN(C)CC3)n1)C(=O)OCC2` [Ex. 34, 6-methyl-8-(4-methyl-piperazine-1-yl)-3,4-dihydro-pyrano[3,4-c]pyridine-1-on], the inhibition at 1 µM (test conc. 1 μM) came to 58%. Also, the inhibition at 10 µM (test conc. 10 μM) is 62%. For the same compound, under “test conc. 100 μM”, the inhibition at 100 µM amounted to 70%. In addition, the inhibition at 1000 µM (test conc. 1 mM) came to 80%.
On to `COc1nc(C)cc2c1C(=O)OCC2` [Ex. 22, 8-methoxy-6-methyl-3,4-dihydro-pyrano[3,4-c]pyridine-1-on], for which, under “test conc. 10 μM”, the inhibition at 10 µM turned out to be 10%. The inhibition at 100 µM (test conc. 100 μM) was determined as 17%. The inhibition at 1000 µM (test conc. 1 mM) turned out to be 30%.
Turning to `Cc1cc2c(c(-c3ccccn3)n1)C(=O)OCC2` [Ex. 29, 6-methyl-8-pyridine-2-yl-3,4-dihydro-pyrano[3,4-c]pyridine-1-on], the inhibition at 1 µM (test conc. 1 μM) was 10%. Moreover, the inhibition at 10 µM (test conc. 10 μM) amounted to 15%. Further, the inhibition at 100 µM (test conc. 100 μM) worked out at 18%. Moreover, where the note is “test conc. 1 mM”, the inhibition at 1000 µM was 30%.
Regarding `Cc1cc2c(c(NCc3ccccc3)n1)C(=O)OCC2` [Ex. 51, 8-benzylamino-6-methyl-3,4-dihydro-pyrano[3,4-c]pyridine-1-on], the inhibition at 1 µM (test conc. 1 μM) was determined as 9%. Further, where the note is “test conc. 10 μM”, the inhibition at 10 µM was found to be 15%. In addition, for the setting “test conc. 100 μM”, the inhibition at 100 µM stood at 21%. In addition, the inhibition at 1000 µM (test conc. 1 mM) was determined as 30%.
For `O=C1OCCc2c1cnc1ccccc21` [Ex. 112, 3,4-dihydro-2-oxa-9-aza-phenanthrene-1-on], in that order: 24%, 28%, 33% and 35%.
On the same counts, the results for `Cc1cc2c(c(Nc3ccc(Cl)cc3)n1)C(=O)OCC2` [Ex. 37, 8-(4-chloro-phenylamino)-6-methyl-3,4-dihydro-pyrano[3,4-c]pyridine-1-on] are 54%, 69%, 78% and 89%.
On to `Cc1ncc2c(c1-c1ccccc1)CCOC2=O` [Ex. 62, 6-methyl-5-phenyl-3,4-dihydro-pyrano[3,4-c]pyridine-1-on], for which the “inhibitory activity in RAW 264.7 cell line on the production of TNF-α, in words” value (from here on “inhibitory activity”) was “superiorities over to the control compounds”. The inhibition at 1 µM (test conc. 1 μM) came out at 60%. Also, under “test conc. 10 μM”, the inhibition at 10 µM is 78%. In addition, the inhibition at 100 µM (test conc. 100 μM) came out at 89%. In addition, the inhibition at 1000 µM (test conc. 1 mM) came to 100%.
In the case of `S=C1OCCc2ccncc21` [Ex. 113, 3,4-dihydro-pyrano[3,4-c]pyridine-1-thione], the inhibition at 1 µM (test conc. 1 μM) was 10%. The inhibition at 10 µM (test conc. 10 μM) turned out to be 19%. In addition, for the setting “test conc. 100 μM”, the inhibition at 100 µM was 28%. The inhibition at 1000 µM (test conc. 1 mM) stood at 42%.
On the same counts, the results for `Cc1nc(O)c2c(c1-c1ccccc1)CCOC2=O` [Ex. 60, 8-hydroxy-6-methyl-5-phenyl-3,4-dihydro-pyrano[3,4-c]pyridine-1-on] are 39%, 48%, 56% and 78%.
Consider `Cc1cc2c(c(Oc3ccccc3)n1)C(=O)OCC2` [Ex. 50, 6-methyl-8-phenoxy-3,4-dihydro-pyrano[3,4-c]pyridine-1-on], for which the inhibition at 1 µM (test conc. 1 μM) turned out to be 5%. In addition, the inhibition at 10 µM (test conc. 10 μM) was 9%. For the same compound, the inhibition at 100 µM (test conc. 100 μM) is 19%. Moreover, the inhibition at 1000 µM (test conc. 1 mM) came to 25%.
On to `Cc1nc(-c2ccc3c(c2)OCO3)cc2c1C(=O)OCC2` [Ex. 99, 6-(benzo[d][1,3]dioxol-6-yl)-8methyl-3,4-dihydro-pyrano[3,4c]pyridine-1-on], for which the “TNF-α Inhibition Rate (%)” value was determined as 9% (test conc. 1 μM), 19% (test conc. 10 μM), 22% (test conc. 100 μM) and 35% (test conc. 1 mM).
As to `Cc1nc(-c2ccc(N(C)C)cc2)cc2c1C(=O)OCC2` [Ex. 100, 6-(4-(dimethylamino)phenyl)-8-methyl-3,4-dihydro-pyrano[3,4-c]pyridine-1-on], the inhibition at 10 µM (test conc. 10 μM) was found to be 9%. Also, the inhibition at 100 µM (test conc. 100 μM) worked out at 18%. Under “test conc. 1 mM”, the inhibition at 1000 µM stood at 29%.
In the case of `Cc1nc(-c2ccco2)cc2c1C(=O)OCC2` [Ex. 98, 6-(furan-2-yl)-8-methyl-3,4-dihydro-pyrano[3,4-c]pyridine-1-on], the inhibition at 1 µM (test conc. 1 μM) was found to be 56%. In addition, for the setting “test conc. 10 μM”, the inhibition at 10 µM is 64%. For the same compound, the inhibition at 100 µM (test conc. 100 μM) was 72%. Further, the inhibition at 1000 µM (test conc. 1 mM) turned out to be 87%.
As to `Cc1nc(-c2cccs2)cc2c1C(=O)OCC2` [Ex. 97, 8-methyl-6-(thiophene-2-yl)-3,4-dihydro-pyrano[3,4-c]pyridine-1-on], the “inhibitory activity” value is reported as “superiorities over to the control compounds”. In addition, the inhibition at 1 µM (test conc. 1 μM) came to 75%. The inhibition at 10 µM (test conc. 10 μM) was 84%. In addition, where the note is “test conc. 100 μM”, the inhibition at 100 µM was found to be 93%. Besides, where the note is “test conc. 1 mM”, the inhibition at 1000 µM was 100%.
As to `Cc1ccc(Nc2nc(C)cc3c2C(=O)OCC3)cc1` [Ex. 39, 6-methyl-8-p-tolylamino-3,4-dihydro-pyrano[3,4-c]pyridine-1-on], where the note is “test conc. 1 μM”, the inhibition at 1 µM was determined as 9%. In addition, where the note is “test conc. 10 μM”, the inhibition at 10 µM was determined as 22%. Besides, for the setting “test conc. 100 μM”, the inhibition at 100 µM came out at 31%. For the same compound, the inhibition at 1000 µM (test conc. 1 mM) turned out to be 40%.
For `Cc1cc2c(c(-c3cccs3)n1)C(=O)OCC2` [Ex. 28, 6-methyl-8-thiophene-2-yl-3,4-dihydro-pyrano[3,4-c]pyridine-1-on], in that order: 8%, 27%, 37% and 59%.
For `Cc1cc2c(c(Nc3ccc(F)cc3)n1)C(=O)OCC2` [Ex. 35, 8-(4-fluoro-phenylamino)-6-methyl-3,4-dihydro-pyrano[3,4-c]pyridine-1-on], in that order: 9%, 17%, 26% and 32%.
On the same counts, the results for `O=C1OCCc2cc(-c3ccccc3)ncc21` [Ex. 68, 6-phenyl-3,4-dihydro-pyrano[3,4-c]pyridine-1-on] are 50%, 58%, 65% and 76%.
Turning to `Cc1cc2c(c(C)n1)C(=O)OCC2` [Ex. 26, 6,8-dimethyl-3,4-dihydro-pyrano[3,4-c]pyridine-1-on], the inhibition at 10 µM (test conc. 10 μM) is 6%. Moreover, for the setting “test conc. 100 μM”, the inhibition at 100 µM turned out to be 17%. For the same compound, the inhibition at 1000 µM (test conc. 1 mM) came to 28%.
With `Cc1nc(Cl)c2c(c1-c1ccccc1)CCOC2=O` [Ex. 61, 8-chloro-6-methyl-5-phenyl-3,4-dihydro-pyrano[3,4-c]pyridine-1-on], the “inhibitory activity” value is reported as “superiorities over to the control compounds”. For the same compound, for the setting “test conc. 1 μM”, the inhibition at 1 µM was 87%. The inhibition at 10 µM (test conc. 10 μM) worked out at 100%. For the same compound, where the note is “test conc. 100 μM”, the inhibition at 100 µM was 100%. For the setting “test conc. 1 mM”, the inhibition at 1000 µM was determined as 100%.
Take `Cc1cc2c(c(-c3ccc(Cl)cc3)n1)C(=O)OCC2` [Ex. 31, 8-(4-chloro-phenyl)-6-methyl-3,4-dihydro-pyrano[3,4-c]pyridine-1-on]: the “inhibitory activity” value was “superiorities over to the control compounds”. Besides, where the note is “test conc. 1 μM”, the inhibition at 1 µM is 100%. Where the note is “test conc. 10 μM”, the inhibition at 10 µM was determined as 100%. Besides, for the setting “test conc. 100 μM”, the inhibition at 100 µM is 100%. Under “test conc. 1 mM”, the inhibition at 1000 µM worked out at 100%.
As to `O=C1NC(c2ccccc2)Cc2ccncc21` (centres unmarked) [Ex. 120b, 3-phenyl-3,4-dihydro-2H-[2,7]naphtyridine-1-on], the “TNF-α Inhibition Rate (%)” value (test conc. 1 μM) turned out to be 26%, the “TNF-α Inhibition Rate (%)” value (test conc. 10 μM) is given as 30%, the “TNF-α Inhibition Rate (%)” value (test conc. 100 μM) came out at 32% and the “TNF-α Inhibition Rate (%)” value (test conc. 1 mM) is 42%.
Regarding `O=C1NCCc2ccncc21` [Ex. 116, 3,4-dihydro-2H-[2,7]naphtyridine-1-on], the “TNF-α Inhibition Rate (%)” value is 10% (test conc. 10 μM), 18% (test conc. 100 μM) and 29% (test conc. 1 mM).
